Data taken from BindingDB's records for doi:10.1016/j.bmcl.2007.09.043 (Amgen, 2007).
pEC50: −log10 of the molar value.

Target: T1, N-formyl peptide receptor 2 (Homo sapiens, UniProt P25090)
T1 sequence (P25090 whole entry): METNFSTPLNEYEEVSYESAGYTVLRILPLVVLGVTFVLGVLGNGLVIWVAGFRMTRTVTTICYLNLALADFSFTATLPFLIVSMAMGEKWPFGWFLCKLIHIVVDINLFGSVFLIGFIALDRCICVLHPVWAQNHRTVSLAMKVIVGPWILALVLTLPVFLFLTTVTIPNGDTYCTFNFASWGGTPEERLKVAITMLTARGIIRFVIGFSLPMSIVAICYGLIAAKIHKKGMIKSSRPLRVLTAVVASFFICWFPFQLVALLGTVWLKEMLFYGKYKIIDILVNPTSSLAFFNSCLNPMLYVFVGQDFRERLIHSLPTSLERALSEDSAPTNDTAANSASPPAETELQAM
Assay: hFPRL1-Mediated Ca2+ Mobilization Assay
Settings: pH 7.2; 37 °C
Method: hFPRL 1 activity was assayed using an aequorin-based bioluminescence assay (Ca2+ flux). EC50 values have been determined by Ca2+ flux in CHO recombinant cells co-expressing hFPRL1, G (alpha15) protein, and aequorin.

- pEC50: 5.19
SMILES: COc1ccc2[nH]c(C(=O)N3CCC(n4c(=O)[nH]c5ccccc54)CC3)cc2c1 [1-{1-[(5-methoxy-1H-indol-2-yl)carbonyl]piperidin-4-yl}-1,3-dihydro-2H-benzimidazol-2-one]
